Test system: bleomycin treated mice
Assay: Bleomycin-induced pulmonary fibrosis in mice (survival, weight, BAL cells, lung collagen)
Assay type: in vivo, C57BL/6 mice
Procedure: The successful aspiration of bleomycin into the lungs was confirmed by listening for a crackling noise heard after the aspiration. 100 μl DMSO or 20 mg/kg RK33 in 100 μl DMSO was given to mice by intraperitoneal (IP) injection at day 10, 12, 14, 16, 18 and 20 after bleomycin treatment. Mice were weighed daily, and euthanized using CO2 following NIH guidelines at day 21 after bleomycin aspiration. The experiment was performed in accordance with the recommendations in the Guide for the Care and Use of Laboratory Animals of the National Institutes of Health. The Texas A&M University Animal Use and Care Committee approved the protocol.
The BALs were clarified by centrifugation at 500×g for 10 minutes, and the supernatants were transferred to Eppendorf tubes. The cells collected from BAL were counted, and BAL cytospins were prepared as described in Fibroblasts secrete Slit2 to inhibit fibrocyte differentiation and fibrosis, Proc Natl Acad Sci USA, 2014, 111: 18291-18296. BAL cytospins were fixed and treated with Wright-Giemsa stain (#08711, Polysciences, Inc., Warrington, PA) following Variation of differential cell counts of bronchoalveolar lavage fluid, Archives of pathology & laboratory medicine, 1986, 110(4): 341-343.
After collection of BAL fluid, mouse lungs were inflated with prewarmed Optimal Cutting Temperature (OCT) embedding medium (VWR, Radnor, PA) and then embedded in OCT, frozen on dry ice, and then stored at −80° C. 8-micron cryosections of mouse lungs were mounted on Superfrost Plus® microscope slides (VWR). The sections on the slides were allowed to air-dry for 24-48 hours. Total collagen on the mouse lung sections were stained with picrosirius red as described in Reduction of bleomycin-induced pulmonary fibrosis by serum amyloid P, J Immunol, 2007, 179: 4035-4044. Hydroxyproline in the mouse lung tissue was measured with a hydroxyproline assay as described in Attenuated pulmonary fibrosis in sialidase-3 knockout (Neu3−/−) mice, Am J Physiol Lung Cell Mol Physiol, 2020, 318(1): L165-L179.

[1] = 20 mg/kg IP, day 21 (FIGS. 6A-6B)

(diimidazo[4,5-d:4′,5′-f]-[1,3]diazepine) [RK33]
survival rate (20 mg/kg IP at day 10, 12, 14, 16, 18 and 20, to day 21 (FIG. 3)): dramatically increased | body weight recovery (20 mg/kg IP at day 10-20 every other day (FIG. 4)): improved | total cell number in BAL (20 mg/kg IP, day 21 (FIG. 5A)): significantly blocked the bleomycin effect | total collagen in lungs, hydroxyproline assay (20 mg/kg IP, day 21 (FIG. 7)): reduced the abnormally high levels of collagen | difference between lung of bleomycin+RK33 treated mouse and control mouse, picrosirius red collagen [1]: no significant difference | total collagen in lungs, picrosirius red staining [1]: reduced the abnormally high levels of collagen | percentage of lymphocytes in BAL (20 mg/kg IP, day 21, Wright-Giemsa stain (FIG. 5B)): significantly blocked the bleomycin effect
